We go through twelve compounds from patent publication US20230310445A1, “LOX ENZYME INHIBITING METHODS AND COMPOSITIONS” (ANOVIA BIOSCIENCES, INC., priority 2020, published 2023).

The target of assay [1] is T1, Bovine lysyl oxidase (LOX) (Bos taurus, UniProt P33072).
T1 construct: from tissue; host or cells: adult bovine tendon
T1 sequence (P33072 170-418): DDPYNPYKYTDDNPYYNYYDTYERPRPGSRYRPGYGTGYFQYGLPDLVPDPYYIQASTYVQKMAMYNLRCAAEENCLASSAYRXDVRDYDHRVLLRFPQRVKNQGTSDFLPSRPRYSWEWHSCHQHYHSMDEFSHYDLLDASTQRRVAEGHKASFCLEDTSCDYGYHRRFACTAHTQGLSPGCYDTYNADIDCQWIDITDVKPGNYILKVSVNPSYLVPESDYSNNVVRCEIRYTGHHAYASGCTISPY
As to the kind of experiment: LOX inhibition assay (fluorometric, cadaverine/Amplex Red/HRP). It counts as biochemical. The conditions noted are these: IC50 class; bovine tendon LOX, cadaverine substrate; read-out: Activity Range LOX. The protocol:
(§1) The ability of compounds to inhibit prototypic LOX was determined using a fluorometric assay. This assay measures the activity of lysyl oxidases by coupling the reaction with horseradish peroxidase-catalyzed […]. The activity assay protocol uses cadaverine as substrate that releases hydrogen peroxide upon transformation by prototypic LOX enzyme present in the sample. Hydrogen peroxide is in turn detected using a red fluorescence substrate for HRP-coupled reactions (Amplex Red Enzyme Assays, Thermo Scientific Fisher). This leads to increase in fluorescence that can be easily detected at Ex/Em=540/590 nm in a fluorescence microplate reader.
Enzyme: Bovine lysyl oxidase (LOX) was extracted by adapting the methodology from [Kagan et al. 1979 and Borel et al. 2001.] from bovine tendon: Frozen adult bovine tendon was placed in room temperature water to defrost, and then membranes were removed and the remaining tissue cut into 1 cm pieces. The material was first passed through a course mesh meat grinder, and this mince was passed through a fine mesh grinder. The mince was homogenized in 10 v/w of buffer (16 mM sodium phosphate buffer pH 7.8, 400 mM NaCl) using a Waring blender. The homogenate was centrifuged at 15,000×g for 15 min at 4° C. After centrifugation, the supernatant was discarded and the pellets resuspended in 10 volumes of the same buffer. The mixture was blended again and centrifuged with the same settings. This time the pellets were blended in 3 volumes of extraction buffer (16 mM sodium phosphate buffer pH 7.8) and left to incubate at 4° C. for 2 h. After this time, the slurry was centrifuged with the same settings as described above. The supernatant was used in an ultrafiltration step to remove large proteins by size exclusion through a 30 kDalton filter (EMD Millipore). The filtrate was mixed with DEAE Sephadex (GE Healthcare), or passed over a MonoQ FPLC column. After two washes, one in 16 mM sodium phosphate buffer pH 7.8, 380 mM NaCl, and another in 16 mM sodium phosphate buffer pH 7.8, the proteins were eluted with 16 mM sodium phosphate pH 7.8, 10 μM CuSO4, and 4 M urea. Fractions containing Lox activity were collected and stored frozen at −70° C.
Reaction: Final concentration in the LOX assay was as following and performed in a total volume of […]:
Experimental procedure: 7 μl of freshly prepared reaction buffer were delivered to reaction wells. Compounds were resuspended in 100% DMSO at 10 mM and delivered into buffer using acoustic technology (Echo550; nanoliter range). A 2.85× solution of LOX protein in reaction buffer was prepared (“LOX solution”) and 7 μl of LOX solution was added into the reaction wells. Buffer only was added to column 1 for no protein control. Reactions were incubated for 30 minutes at 37° C. A 3.33× mixture of cadaverine, Amplex Red, and HRP (“Substrate/Detection Mix) was prepared and subsequently 6 μL of the mixture was added to each reaction well. Progress of reactions was monitored for 120 minutes at 37° C. using Clariostar plate reader (ex530-12, ems 600-40). For all activity assays, pan-LOX inhibitor CCT365623 (Tang et al, 2017) and LOXL2/LOXL3 inhibitor PAT-1251 (PharmaKea) were included as standards.
Data analysis: Slope of the linear portion of the progress curve was calculated using Clariostar software. Typical analysis interval was between 20-50 min, but varied between experiments. The background subtracted signals (No protein wells were considered as background) were converted to % activity relative to DMSO controls. Data was analyzed using GraphPad Prism 4 with “sigmoidal dose-response (variable slope)”; 4 parameters with Hill Slope. Constraints: Bottom=Constant equal to 0. Top=Must be less than 120.

Assay [2] deals with T2, Recombinant human LOXL2 (lysyl oxidase like 2) (Homo sapiens, UniProt Q9Y4K0).
T2 construct: purchased R&D systems
T2 sequence (Q9Y4K0 26-774): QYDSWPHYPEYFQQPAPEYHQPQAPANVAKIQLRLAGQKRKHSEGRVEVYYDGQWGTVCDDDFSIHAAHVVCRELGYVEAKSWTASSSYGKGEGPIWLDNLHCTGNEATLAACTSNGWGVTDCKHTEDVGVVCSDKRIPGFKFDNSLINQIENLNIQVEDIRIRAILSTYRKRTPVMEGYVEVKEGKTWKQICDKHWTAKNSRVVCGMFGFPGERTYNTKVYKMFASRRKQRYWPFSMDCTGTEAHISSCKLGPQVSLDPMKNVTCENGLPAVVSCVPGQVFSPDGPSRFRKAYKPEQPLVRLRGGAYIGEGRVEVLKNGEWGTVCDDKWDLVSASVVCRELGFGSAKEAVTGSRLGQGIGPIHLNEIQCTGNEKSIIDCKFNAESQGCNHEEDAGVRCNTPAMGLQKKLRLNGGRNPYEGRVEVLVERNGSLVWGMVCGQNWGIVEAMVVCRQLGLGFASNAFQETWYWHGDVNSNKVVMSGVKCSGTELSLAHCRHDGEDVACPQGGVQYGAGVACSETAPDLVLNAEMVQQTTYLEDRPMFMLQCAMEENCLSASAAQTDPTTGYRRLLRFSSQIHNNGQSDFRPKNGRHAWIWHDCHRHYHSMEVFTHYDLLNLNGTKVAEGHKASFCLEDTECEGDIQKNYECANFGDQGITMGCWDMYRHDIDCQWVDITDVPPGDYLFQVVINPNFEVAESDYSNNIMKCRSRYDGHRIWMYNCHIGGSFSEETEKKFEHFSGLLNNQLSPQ
The assay is described as follows: LOXL2 inhibition assay (fluorometric, cadaverine/Amplex Red/HRP). As to conditions: IC50 class; recombinant human LOXL2, cadaverine substrate; read-out: Activity Range LOXL2. It counts as biochemical. As to the method:
as §1, with “inhibit one or more of the lysyl oxidases LOXL2 and/or LOXL3” for “inhibit prototypic LOX”, “by the specific” for “by prototypic”, “LOX family” for “LOX”
Enzymes: Recombinant human LOXL2 (lysyl oxidase like 2) and recombinant human LOXL3 (lysyl oxidase like 3) were purchased from R&D systems and assays were performed in 1.2 M urea, 50 mM sodium borate buffer pH 8.0, and 10 mM CaCl.
Reaction: Final concentration in the LOXL2 and LOXL3 assays were as following and performed in a total volume of […]:
Experimental procedure: 5 μl of freshly prepared reaction buffer were delivered to reaction wells. Compounds were resuspended in 100% DMSO at 10 mM and delivered into buffer using acoustic technology (Echo550; nanoliter range). A 3× solution of LOXL2 or LOXL3 in reaction buffer was prepared (“enzyme solution”) and 5 μL of enzyme solution was added into the reaction wells. Buffer only was added to column 1 for no protein control. Reactions were incubated for 30 minutes at 37° C. A 3×mixture of cadaverine, Amplex Red, and HRP (“Substrate/Detection Mix) was prepared and subsequently 5 μL of the mixture added to each reaction well. Progress of reactions was monitored for 60 minutes at 37° C. using Clariostar plate reader (ex 530-12, ems 600-40). For all activity assays, pan-LOX inhibitor CCT365623 (Tang et al, 2017) and LOXL2/LOXL3 inhibitor PAT-1251 (PharmaKea) were included as standards.
Data analysis: Slope of the linear portion of the progress curve was calculated using Clariostar software. Typical analysis interval was between 8-30 min, but varied between experiments. The background subtracted signals (No protein wells are considered as background) were converted to % activity relative to DMSO controls. Data was analyzed using GraphPad Prism 4 with “sigmoidal dose-response (variable slope)”; 4 parameters with Hill Slope. Constraints: Bottom=Constant equal to 0. Top=Must be less than 120.

SMILES strings stand for the structures. Where only a bound is given, the exact number is not on record here.

Take `NCc1cccc(S(=O)(=O)N2C[C@@H](C(=O)N3CCS(=O)(=O)CC3)C[C@@H](C(F)(F)F)C2)c1` (racemic) [Example 99, cis-(1-((3-(Aminomethyl)phenyl)sulfonyl)-5-(trifluoromethyl)piperidin-3-yl)(1,1-dioxidothiomorpholino)methanone 2,2,2-trifluoroacetate]: the IC50 in assay [1] was more than 30 µM; in assay [2], 1 to 30 µM.

Regarding `CC(N)c1cccc(S(=O)(=O)N2C[C@@H](C(=O)N3CCOCC3)C[C@@H](c3ccccc3)C2)c1` (mixture of isomers) [Example 102RAC, cis-(1-((3-(1-Aminoethyl)phenyl)sulfonyl)-5-phenylpiperidin-3-yl)(morpholino)methanone 2,2,2-trifluoroacetate], the IC50 in assay [1] and in assay [2] was more than 30 µM throughout.

With `CC(N)c1cccc(S(=O)(=O)N2C[C@H](C(=O)N3CCOCC3)C[C@@H](c3ccccc3)C2)c1` (mixture of isomers) [Example 102TR, trans-(1-((3-(1-Aminoethyl)phenyl)sulfonyl)-5-phenylpiperidin-3-yl)(morpholino)methanone 2,2,2-trifluoroacetate], the IC50 in assay [1] and in assay [2] was more than 30 µM throughout.

Take `CC(N)c1cccc(S(=O)(=O)N2C[C@H](C(=O)N3CCS(=O)(=O)CC3)C[C@@H](c3ccccc3)C2)c1` (mixture of isomers) [Example 106, trans-(1-((3-(1-Aminoethyl)phenyl)sulfonyl)-5-phenylpiperidin-3-yl) (1,1-dioxidothiomorpholino)methanone 2,2,2-trifluoroacetate]: the IC50 in assay [1] and in assay [2] was more than 30 µM throughout.

For `NCc1cccc(S(=O)(=O)N2C[C@H](C(=O)N3CCOCC3)C[C@@H](C(F)(F)F)C2)c1` (racemic) [Example 110], the IC50 in assay [1] is more than 30 µM; in assay [2] it was 1 to 30 µM.

In the case of `NCc1cnc(S(=O)(=O)N2C[C@@H](C(=O)N3CCOCC3)C[C@@H](c3ccccc3)C2)s1` (racemic) [Example 111, cis-(1-((5-(Aminomethyl)thiazol-2-yl)sulfonyl)-5-phenylpiperidin-3-yl)(morpholino)methanone 2,2,2-trifluoroacetate], the results for the IC50 in assay [1] and in assay [2] were more than 30 µM and 0.5 to 1 µM, respectively.

With `NCc1cnc(S(=O)(=O)N2C[C@@H](C(=O)N3CCS(=O)(=O)CC3)C[C@@H](c3ccccc3)C2)s1` (racemic) [Example 112, cis-(1-((5-(Aminomethyl)thiazol-2-yl)sulfonyl)-5-phenylpiperidin-3-yl)(1,1-dioxidothiomorpholino)methanone 2,2,2-trifluoroacetate], the IC50 in assay [1] was 1 to 30 µM; in assay [2], not above 0.5 µM.

For `NCc1cnc(S(=O)(=O)N2C[C@H](C(=O)N3CCS(=O)(=O)CC3)C[C@@H](c3ccccc3)C2)s1` (racemic) [Example 112T, trans-(1-((5-(Aminomethyl)thiazol-2-yl)sulfonyl)-5-phenylpiperidin-3-yl)(1,1-dioxidothiomorpholino)methanone 2,2,2-trifluoroacetate], the values for the IC50 in assay [1] and in assay [2] were 1 to 30 µM and 0.5 to 1 µM, respectively.

Consider `CS(=O)(=O)N1CCN(C(=O)[C@H]2C[C@@H](c3ccccc3)CN(S(=O)(=O)c3ncc(CN)s3)C2)CC1` (racemic) [Example 113, cis-(1-((5-(Aminomethyl)thiazol-2-yl)sulfonyl)-5-phenylpiperidin-3-yl)(4-(methylsulfonyl)piperazin-1-yl)methanone 2,2,2-trifluoroacetate], for which the figures for the IC50 in assay [1] and in assay [2] were 1 to 30 µM and not above 0.5 µM, respectively.

In the case of `CS(=O)(=O)N1CCN(C(=O)[C@@H]2C[C@@H](c3ccccc3)CN(S(=O)(=O)c3ncc(CN)s3)C2)CC1` (racemic) [Example 113T, trans-(1-((5-(Aminomethyl)thiazol-2-yl)sulfonyl)-5-phenylpiperidin-3-yl)(4-(methylsulfonyl)piperazin-1-yl)methanone 2,2,2-trifluoroacetate], the IC50 in assay [1] is 1 to 30 µM; in assay [2], not above 0.5 µM.

In the case of `CS(=O)(=O)N1CCN(C(=O)[C@@H]2C[C@@H](c3ccccc3)CN(S(=O)(=O)c3cccc(CN)n3)C2)CC1` (racemic) [Example 116T, trans-(1-((6-(Aminomethyl)pyridin-2-yl)sulfonyl)-5-phenylpiperidin-3-yl)(4-(methylsulfonyl)piperazin-1-yl)methanone 2,2,2-trifluoroacetate], the IC50 was more than 30 µM in assay [1] and 1 to 30 µM in assay [2].

In the case of `CS(=O)(=O)N1CCN(C(=O)[C@H]2C[C@@H](c3ccccc3)CN(S(=O)(=O)c3cccc(CN)n3)C2)CC1` (racemic) [Example 116], the IC50 in assay [1] is more than 30 µM; in assay [2], 1 to 30 µM.
